# Data: patent US20250282827A1, “LIPIDATED POLYMYXIN ANALOGUES” (priority 2021, published 2025)
# Positions of bridges follow the written chain, without caps; N, C: chain ends. Non-standard residues stand in square brackets, D forms with d. Residues, ends and D or L forms follow the SMILES beside them. *: point of attachment. CH2CH2OBz(4-tBu) = CC(C)(C)c1ccc(C(=O)OCC*)cc1; Ethyl(2-butanoyloxy) = CCCC(=O)OCC*; Ethyl(2-propionyloxy) = CCC(=O)OCC*; Ethyl(2-OPiv) = CC(C)(C)C(=O)OCC*; Ethyl(2-OBz) = O=C(OCC*)c1ccccc1; X14 = CCCCCCCCCCCC(=O)OCC*; hCys = N[C@@H](CCS)C(=O)O; Dab = NCC[C@H](N)C(=O)O; Dap = NC[C@H](N)C(=O)O; X4 = CCCCCCCC(=O)OCC*; X1 = CCCCCC(=O)OCC*; Mpa = O=C(O)CCS
# System: E. coli ATCC 25922
# Assay type: cell-based, Escherichia coli
# Settings: ATCC 25922
# Excerpt: All 81 compounds prepared in Examples 2 and 3 underwent screening against a panel of Gram-negative bacterium to assess their ability to inhibit bacterial growth. […] The median value is presented.
row,Structure (SMILES),MIC E. coli ATCC 25922 [µg/mL]
1,CCCCCCCCCCCC(=O)OCCSC[C@H](N)C(=O)N[C@H](C(=O)N[C@@H](CCN)C(=O)N[C@H]1CCNC(=O)[C@H]([C@@H](C)O)NC(=O)[C@H](CCN)NC(=O)[C@H](CCN)NC(=O)[C@H](CC(C)C)NC(=O)[C@@H](Cc2ccccc2)NC(=O)[C@H](CCN)NC1=O)[C@@H](C)O [Compound 70] (H-C(X14)T[Dab][Dab][Dab][dF]L[Dab][Dab]T; lactam 4-C),8
2,CC(C)C[C@@H]1NC(=O)[C@@H](Cc2ccccc2)NC(=O)[C@H](CCN)NC(=O)[C@@H](NC(=O)[C@H](CCN)NC(=O)[C@@H](NC(=O)[C@@H](N)CSCCOC(=O)C(C)(C)C)[C@@H](C)O)CCNC(=O)[C@H]([C@@H](C)O)NC(=O)[C@H](CCN)NC(=O)[C@H](CCN)NC1=O [Compound 71] (H-C(Ethyl(2-OPiv))T[Dab][Dab][Dab][dF]L[Dab][Dab]T; lactam 4-C),32
3,CC(C)C[C@@H]1NC(=O)[C@@H](Cc2ccccc2)NC(=O)[C@H](CCN)NC(=O)[C@@H](NC(=O)[C@H](CCN)NC(=O)[C@@H](NC(=O)[C@@H](N)CSCCOC(=O)c2ccc(C(C)(C)C)cc2)[C@@H](C)O)CCNC(=O)[C@H]([C@@H](C)O)NC(=O)[C@H](CCN)NC(=O)[C@H](CCN)NC1=O [Compound 73] (H-C(CH2CH2OBz(4-tBu))T[Dab][Dab][Dab][dF]L[Dab][Dab]T; lactam 4-C),1
4,CCC(=O)OCCSC[C@@H](N)C(=O)N[C@H](C(=O)N[C@@H](CCN)C(=O)N[C@H]1CCNC(=O)[C@H]([C@@H](C)O)NC(=O)[C@H](CCN)NC(=O)[C@H](CCN)NC(=O)[C@H](CC(C)C)NC(=O)[C@@H](Cc2ccccc2)NC(=O)[C@H](CCN)NC1=O)[C@@H](C)O [Compound 74] (H-[dC](Ethyl(2-propionyloxy))T[Dab][Dab][Dab][dF]L[Dab][Dab]T; lactam 4-C),2
5,CCCC(=O)OCCSC[C@@H](N)C(=O)N[C@H](C(=O)N[C@@H](CCN)C(=O)N[C@H]1CCNC(=O)[C@H]([C@@H](C)O)NC(=O)[C@H](CCN)NC(=O)[C@H](CCN)NC(=O)[C@H](CC(C)C)NC(=O)[C@@H](Cc2ccccc2)NC(=O)[C@H](CCN)NC1=O)[C@@H](C)O [Compound 75] (H-[dC](Ethyl(2-butanoyloxy))T[Dab][Dab][Dab][dF]L[Dab][Dab]T; lactam 4-C),1
6,CCCCCC(=O)OCCSC[C@@H](N)C(=O)N[C@H](C(=O)N[C@@H](CCN)C(=O)N[C@H]1CCNC(=O)[C@H]([C@@H](C)O)NC(=O)[C@H](CCN)NC(=O)[C@H](CCN)NC(=O)[C@H](CC(C)C)NC(=O)[C@@H](Cc2ccccc2)NC(=O)[C@H](CCN)NC1=O)[C@@H](C)O [Compound 76] (H-[dC](X1)T[Dab][Dab][Dab][dF]L[Dab][Dab]T; lactam 4-C),0.125
7,CCCCCCCC(=O)OCCSC[C@@H](N)C(=O)N[C@H](C(=O)N[C@@H](CCN)C(=O)N[C@H]1CCNC(=O)[C@H]([C@@H](C)O)NC(=O)[C@H](CCN)NC(=O)[C@H](CCN)NC(=O)[C@H](CC(C)C)NC(=O)[C@@H](Cc2ccccc2)NC(=O)[C@H](CCN)NC1=O)[C@@H](C)O [Compound 77] (H-[dC](X4)T[Dab][Dab][Dab][dF]L[Dab][Dab]T; lactam 4-C),0.25
8,CC(C)C[C@@H]1NC(=O)[C@@H](Cc2ccccc2)NC(=O)[C@H](CCN)NC(=O)[C@@H](NC(=O)[C@H](CCN)NC(=O)[C@@H](NC(=O)[C@H](N)CSCCOC(=O)C(C)(C)C)[C@@H](C)O)CCNC(=O)[C@H]([C@@H](C)O)NC(=O)[C@H](CCN)NC(=O)[C@H](CCN)NC1=O [Compound 79] (H-[dC](Ethyl(2-OPiv))T[Dab][Dab][Dab][dF]L[Dab][Dab]T; lactam 4-C),0.25
9,CC(C)C[C@@H]1NC(=O)[C@@H](Cc2ccccc2)NC(=O)[C@H](CCN)NC(=O)[C@@H](NC(=O)[C@H](CCN)NC(=O)[C@@H](NC(=O)[C@H](N)CSCCOC(=O)c2ccc(C(C)(C)C)cc2)[C@@H](C)O)CCNC(=O)[C@H]([C@@H](C)O)NC(=O)[C@H](CCN)NC(=O)[C@H](CCN)NC1=O [Compound 80] (H-[dC](CH2CH2OBz(4-tBu))T[Dab][Dab][Dab][dF]L[Dab][Dab]T; lactam 4-C),0.5
10,CCC(=O)OCCSC[C@H](N)C(=O)N[C@H](C(=O)N[C@@H](CN)C(=O)N[C@H]1CCNC(=O)[C@H]([C@@H](C)O)NC(=O)[C@H](CCN)NC(=O)[C@H](CCN)NC(=O)[C@H](CC(C)C)NC(=O)[C@@H](Cc2ccccc2)NC(=O)[C@H](CCN)NC1=O)[C@@H](C)O [Compound 81] (H-C(Ethyl(2-propionyloxy))T[Dap][Dab][Dab][dF]L[Dab][Dab]T; lactam 4-C),16
11,CCC(=O)OCCSC[C@@H](N)C(=O)N[C@H](C(=O)N[C@@H](CN)C(=O)N[C@H]1CCNC(=O)[C@H]([C@@H](C)O)NC(=O)[C@H](CCN)NC(=O)[C@H](CCN)NC(=O)[C@H](CC(C)C)NC(=O)[C@@H](Cc2ccccc2)NC(=O)[C@H](CCN)NC1=O)[C@@H](C)O [Compound 82] (H-[dC](Ethyl(2-propionyloxy))T[Dap][Dab][Dab][dF]L[Dab][Dab]T; lactam 4-C),1
12,CCC(=O)OCCSCCC(=O)N[C@H](C(=O)N[C@@H](CN)C(=O)N[C@H]1CCNC(=O)[C@H]([C@@H](C)O)NC(=O)[C@H](CCN)NC(=O)[C@H](CCN)NC(=O)[C@H](CC(C)C)NC(=O)[C@@H](Cc2ccccc2)NC(=O)[C@H](CCN)NC1=O)[C@@H](C)O [Compound 83] ([Mpa](Ethyl(2-propionyloxy))T[Dap][Dab][Dab][dF]L[Dab][Dab]T; lactam 4-C),2
13,CCC(=O)OCCSCC[C@H](N)C(=O)N[C@H](C(=O)N[C@@H](CN)C(=O)N[C@H]1CCNC(=O)[C@H]([C@@H](C)O)NC(=O)[C@H](CCN)NC(=O)[C@H](CCN)NC(=O)[C@H](CC(C)C)NC(=O)[C@@H](Cc2ccccc2)NC(=O)[C@H](CCN)NC1=O)[C@@H](C)O [Compound 84] (H-[hCys](Ethyl(2-propionyloxy))T[Dap][Dab][Dab][dF]L[Dab][Dab]T; lactam 4-C),32
14,CCC(=O)OCCSC[C@H](N)C(=O)N[C@H](C(=O)N[C@H](CO)C(=O)N[C@H]1CCNC(=O)[C@H]([C@@H](C)O)NC(=O)[C@H](CCN)NC(=O)[C@H](CCN)NC(=O)[C@H](CC(C)C)NC(=O)[C@@H](Cc2ccccc2)NC(=O)[C@H](CCN)NC1=O)[C@@H](C)O [Compound 85] (H-C(Ethyl(2-propionyloxy))T[dS][Dab][Dab][dF]L[Dab][Dab]T; lactam 4-C),>128
15,CCC(=O)OCCSC[C@@H](N)C(=O)N[C@H](C(=O)N[C@H](CO)C(=O)N[C@H]1CCNC(=O)[C@H]([C@@H](C)O)NC(=O)[C@H](CCN)NC(=O)[C@H](CCN)NC(=O)[C@H](CC(C)C)NC(=O)[C@@H](Cc2ccccc2)NC(=O)[C@H](CCN)NC1=O)[C@@H](C)O [Compound 86] (H-[dC](Ethyl(2-propionyloxy))T[dS][Dab][Dab][dF]L[Dab][Dab]T; lactam 4-C),2

# Same assay, conditions: median of triplicate
row,Structure (SMILES),MIC E. coli ATCC 25922 [µg/mL]
1,CC(C)C[C@@H]1NC(=O)[C@@H](Cc2ccccc2)NC(=O)[C@H](CCN)NC(=O)[C@@H](NC(=O)[C@H](CCN)NC(=O)[C@@H](NC(=O)[C@@H](N)CSCCOC(=O)c2ccccc2)[C@@H](C)O)CCNC(=O)[C@H]([C@@H](C)O)NC(=O)[C@H](CCN)NC(=O)[C@H](CCN)NC1=O [Compound 72] (H-C(Ethyl(2-OBz))T[Dab][Dab][Dab][dF]L[Dab][Dab]T; lactam 4-C),8
